According to patent US12673933B2, “Aminopyrazine compounds as HPK1 inhibitor and the use thereof” (BEIGENE, LTD., priority 2019, dated 2026):

The compounds below were run against T1, HPK1 kinase (aa1-346, Life Technologies) (Homo sapiens, UniProt Q92918) (assay: HPK Kinase Activity Assay at 1 mM ATP (TR-FRET)). Settings: HPK1 kinase 40 nM, 0.5 μM STK1 substrate, read-out: Enzymatic activity IC50.
T1 construct: HPK1 kinase (aa1-346, Life Technologies); purchased Life Technologies
T1 sequence (Q92918 1-346): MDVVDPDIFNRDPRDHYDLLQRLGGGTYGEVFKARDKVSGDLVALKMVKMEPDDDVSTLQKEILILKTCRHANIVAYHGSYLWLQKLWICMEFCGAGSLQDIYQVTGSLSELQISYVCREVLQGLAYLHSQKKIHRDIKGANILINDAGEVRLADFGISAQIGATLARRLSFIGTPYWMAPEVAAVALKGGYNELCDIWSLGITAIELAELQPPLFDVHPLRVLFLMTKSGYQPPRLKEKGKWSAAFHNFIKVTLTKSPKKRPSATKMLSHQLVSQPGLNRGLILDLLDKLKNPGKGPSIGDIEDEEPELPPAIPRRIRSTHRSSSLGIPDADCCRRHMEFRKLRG
Assay type: biochemical
Procedure, shortened: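 HPK1 (aa1-346, 40 nM) was preincubated 60 min at room temperature with compound (0–10 μM) in pH 7.0 HEPES/MgCl2 buffer. Reaction ran 120 min at room temperature with 1 mM ATP and 0.5 μM STK1 substrate. Phosphorylation was read as the TR-FRET 665/620 nm ratio, with IC50 from a four-parameter logistic fit.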

In order of falling IC50:
1. Cc1cc(-c2cnc(N)c(Oc3cnn([C@H]4C[C@H](C#N)C4)c3)n2)cc2c1CN(C)CC2 [Example 316, (1r,3r)-3-(4-((3-amino-6-(2,8-dimethyl-1,2,3,4-tetrahydroisoquinolin-6-yl)pyrazin-2-yl)oxy)-1H-pyrazol-1-yl)cyclobutane-1-carbonitrile]  85 nM
2. Cc1cc(-c2cnc(N)c(Oc3cnn([C@H]4CC[C@@](C)(O)CC4)c3)n2)cc2c1CN(C)CC2 [Example 312, (1s,4s)-4-(4-(3-amino-6-(2,8-dimethyl-1,2,3,4-tetrahydroisoquinolin-6-yl)pyrazin-2-yloxy)-1H-pyrazol-1-yl)-1-methylcyclohexanol]  63 nM
3. Cc1cc(-c2cnc(N)c(Oc3cnn(CC(C)(C)C#N)c3)n2)cc2c1CN(C)CC2 [Example 318, 3-(4-(3-amino-6-(2,8-dimethyl-1,2,3,4-tetrahydroisoquinolin-6-yl)pyrazin-2-yloxy)-1H-pyrazol-1-yl)-2,2-dimethylpropanenitrile]  60 nM
4. Cc1cc(-c2cnc(N)c(Oc3cnn(CCC#N)c3)n2)cc2c1CN(C)CC2 [Example 308, 3-(4-((3-amino-6-(2,8-dimethyl-1,2,3,4-tetrahydroisoquinolin-6-yl)pyrazin-2-yl)oxy)-1H-pyrazol-1-yl)propanenitrile]  48 nM
5. Cc1cc(-c2cnc(N)c(Oc3cnn([C@H]4C[C@H](C#N)C4)c3)n2)cc2c1CCN(C)C2 [Example 315, (1r,3r)-3-(4-((3-amino-6-(2,5-dimethyl-1,2,3,4-tetrahydroisoquinolin-7-yl)pyrazin-2-yl)oxy)-1H-pyrazol-1-yl)cyclobutane-1-carbonitrile]  33 nM
6. Cc1cc(-c2cnc(N)c(Oc3cnn(C4CCOCC4)c3)n2)cc2c1CCN(C)C2 [Example 309, 5-(2,5-dimethyl-1,2,3,4-tetrahydroisoquinolin-7-yl)-3-(1-(tetrahydro-2H-pyran-4-yl)-1H-pyrazol-4-yloxy)pyrazin-2-amine]  22 nM
7. CCN1CC(n2cc(Oc3nc(-c4cc(C)c5c(c4)CN(C)CC5)cnc3N)cn2)C1 [Example 310, 5-(2,5-dimethyl-1,2,3,4-tetrahydroisoquinolin-7-yl)-3-(1-(1-ethylazetidin-3-yl)-1H-pyrazol-4-yloxy)pyrazin-2-amine]  20 nM
8. Cc1cc(-c2cnc(N)c(Oc3cnn(C(C)(C)C#N)c3)n2)cc2c1CCN(C)C2 [Example 317, 2-(4-(3-amino-6-(2,5-dimethyl-1,2,3,4-tetrahydroisoquinolin-7-yl)pyrazin-2-yloxy)-1H-pyrazol-1-yl)-2-methylpropanenitrile]  20 nM
9. CC#Cc1nn(-c2nc(-c3cc(C)c4c(c3)CN(C)CC4)cnc2N)cc1C(=O)N(C)C [Example 319, 1-(3-amino-6-(2,5-dimethyl-1,2,3,4-tetrahydroisoquinolin-7-yl)pyrazin-2-yl)-N,N-dimethyl-3-(prop-1-ynyl)-1H-pyrazole-4-carboxamide]  18 nM
10. Cc1cc(-c2cnc(N)c(Oc3cnn(C(C)(C)CC#N)c3)n2)cc2c1CCN(C)C2 [Example 313, 3-(4-(3-amino-6-(2,5-dimethyl-1,2,3,4-tetrahydroisoquinolin-7-yl)pyrazin-2-yloxy)-1H-pyrazol-1-yl)-3-methylbutanenitrile]  8.3 nM
11. Cc1cc(-c2cnc(N)c(Oc3cnn([C@H]4CC[C@@](C)(O)CC4)c3)n2)cc2c1CCN(C)C2 [Example 311, (1s,4s)-4-(4-(3-amino-6-(2,5-dimethyl-1,2,3,4-tetrahydroisoquinolin-7-yl)pyrazin-2-yloxy)-1H-pyrazol-1-yl)-1-methylcyclohexanol]  7.7 nM
12. Cc1cc(-c2cnc(N)c(Oc3cnn(C4CCN(C)CC4)c3)n2)cc2c1CCN(C)C2 [Example 307, 5-(2,5-dimethyl-1,2,3,4-tetrahydroisoquinolin-7-yl)-3-(1-(1-methylpiperidin-4-yl)-1H-pyrazol-4-yloxy)pyrazin-2-amine]  5.9 nM
13. Cc1cc(-c2cnc(N)c(Oc3cnn(CC4(F)CCOCC4)c3)n2)cc2c1CCN(C)C2 [Example 314, 5-(2,5-dimethyl-1,2,3,4-tetrahydroisoquinolin-7-yl)-3-(1-((4-fluoro-tetrahydro-2H-pyran-4-yl)methyl)-1H-pyrazol-4-yloxy)pyrazin-2-amine]  4.5 nM
